Assay results: DBAASP
In brackets after ≈: the same amount, converted by molar mass.

Assays:
Test in all cases: ≥ marks a high value that may be exact or a test limit, other limits are often not marked, values filed in µg/mL are converted to µM
[1] = tested on: Escherichia coli ATCC 25922
[2] = tested on: Staphylococcus aureus ATCC 2592
[3] = tested on: Candida albicans ATCC 2002
[4] = tested on: Pseudomonas aeruginosa ATCC 9027
[5] = tested on: Bacillus subtilis

MIC [1]	MIC [2]	MIC [3]	MIC [4]	MIC [5]	SMILES
9.5 µM (≈ 25 µg/mL)	4.79 µM (≈ 12.6 µg/mL)	19 µM (≈ 50 µg/mL)	–	–	CC[C@H](C)[C@H](NC(=O)CNC(=O)[C@H](Cc1c[nH]c2ccccc12)NC(=O)[C@H](C)NC(=O)[C@H](CCCCN)NC(=O)[C@H](C)N)C(=O)NCC(=O)NCC(=O)N[C@@H](Cc1cnc[nH]1)C(=O)N[C@H](C(=O)N[C@H](C(=O)NCC(=O)N[C@@H](CCC(N)=O)C(=O)N[C@H](C(=O)N[C@H](C(=O)NCC(=O)N[C@H](C(=O)N[C@@H](CCCN=C(N)N)C(=O)N[C@H](C(=O)N[C@@H](CCCN=C(N)N)C(=O)NCC(=O)N[C@@H](CC(C)C)C(=O)N[C@@H](CS)C(=O)NCC(=O)N[C@@H](CC(N)=O)C(=O)N[C@H](C(=O)O)C(C)C)[C@@H](C)CC)C(C)C)C(C)C)[C@@H](C)CC)[C@@H](C)CC)C(C)C [AKAWGIGGHVIGQIVGVRIRGLCGNV]
35 µM (≈ 75.8 µg/mL)	17 µM (≈ 36.8 µg/mL)	≥ 35 µM	9 µM (≈ 19.5 µg/mL)	–	CC(C)C[C@H](NC(=O)CNC(=O)[C@H](Cc1ccccc1)NC(=O)[C@H](CC(C)C)NC(=O)[C@H](CCCN=C(N)N)NC(=O)[C@H](CC(C)C)NC(=O)[C@H](Cc1c[nH]c2ccccc12)NC(=O)CNC(=O)CNC(=O)[C@H](CO)NC(=O)[C@H](CCCCN)NC(=O)[C@H](CC(C)C)NC(=O)[C@H](C)NC(=O)[C@@H](N)CC(C)C)C(=O)N[C@@H](CCCCN)C(=O)N[C@@H](CC(=O)O)C(=O)N[C@@H](CCCCN)C(=O)N[C@@H](CCCCN)C(=O)N[C@@H](Cc1cnc[nH]1)C(N)=O [LALKSGGWLRLFGLKDKKH]
4.77 µM (≈ 12.5 µg/mL)	4.77 µM (≈ 12.5 µg/mL)	4.77 µM (≈ 12.5 µg/mL)	–	≥ 38.2 µM	CC[C@H](C)[C@H](NC(=O)[C@H](C)NC(=O)[C@H](CS)NC(=O)[C@@H](NC(=O)[C@@H](NC(=O)[C@@H](NC(=O)CNC(=O)[C@@H](NC(=O)[C@@H](NC(=O)[C@@H](NC(=O)[C@H](C)NC(=O)[C@H](Cc1ccccc1)NC(=O)[C@H](CC(C)C)NC(=O)[C@H](CCCN=C(N)N)NC(=O)[C@H](CCCN=C(N)N)NC(=O)[C@H](CC(C)C)NC(=O)CNC(=O)CNC(=O)[C@@H](NC(=O)[C@@H](N)Cc1ccccc1)[C@@H](C)CC)[C@@H](C)O)C(C)C)C(C)C)[C@@H](C)O)C(C)C)C(C)C)C(=O)N[C@@H](CC(N)=O)C(=O)N[C@@H](CCCCN)C(=O)N[C@@H](CC(C)C)C(=O)NCC(=O)NCC(=O)NCC(=O)O [FIGGLRRLFATVVGTVVCAINKLGGG]
